In patent US20240417399A1, “ARYL HYDROCARBON RECEPTOR (AHR) MODULATORS AND THERAPEUTIC USES THEREOF” (GALILEO BIOSYSTEMS, INC., priority 2021, published 2024):

What was measured:
[1] = Imiquimod (IMQ)-induced skin inflammation: body weight; format: in vivo; settings: Balb/c mice, topical on right ear, 20 μL, 50 mM once daily Day 1 to Day 9
Description: (§1) The compounds are administered on the right ear once daily from Day 1 to Day 9 for 9 consecutive days. […] Daily Clobetasol dosage is 20 mg of 0.05% cream. One hour after administration, 15 mg imiquimod (IMQ) cream (5%, Aldaras) is applied topically on the right ear from Day 1 to Day 9 for 9 consecutive days. Ear swelling is measured (mm) as an index of inflammation on Day 0 and thereafter 30 min before dosing on Days 2, 4, 6 and 8. On Day 10, ear swelling is measured 24 hours after the last dosing. Ear edema is calculated by subtracting the thickness of Day 0 (normal control) from Day n (treated ear). Percent inhibition is calculated according to the formula: (Lc−Lt)/Lc×100, where Lc and Lt refer to increase of ear thickness in control and treated mice, respectively. Clinical scoring is done on the same days as the measurement of ear swelling. Body weight is recorded on Day 0 and thereafter daily before dosing. […] Right ears are harvested, weighed after the last ear swelling measurement, and cut into two parts, one part to be kept in 10% formalin for histopathological examination and the second part to be stored in RNAlater® solution at −20° C. for detection of IL-17 A, IL-22, GAPDH, and beta defensin with quantitative real-time PCR (qPCR). Dermal thickness is measured after taking photographs under a light microscope for the histopathological examination sections. […]

[2] = test system: CCL2; assay: CCL2 release from human keratinocytes, inflammation induced by IL-4, IL-13, IL-22 and IFN-γ; format: cell-based; settings: human keratinocytes induced by IL-4, IL-13, IL-22 and IFN-γ
Text: (§2) Inflammation of human keratinocytes was induced by IL-4, IL-13, IL-22 and IFN-γ. […] FIG. 5B depicts concentration response curves of CCL2 release and cell viability for tapiranof.

[3] = test system: IL-8; assay: IL-8 release from human keratinocytes, inflammation induced by IL-17 and IFN-α; format: cell-based; settings: human keratinocytes induced by IL-17 and IFN-α
Text: FIG. 6B depicts concentration response curves of inhibition of IL-8 release and cell viability for tapiranof.

[4] = test system: IL-4; assay: IL-4 release from T-cells, inflammation induced by CD2, CD3, and CD28; format: cell-based; settings: highest test concentrations
Text: (§3) Inflammation of T-cells were induced by CD2, CD3, and CD28. […] FIG. 7B depicts concentration response curves of inhibition of IL-2 and IL-4 release and cell viability for tapiranof.

[5] = test system: Male Balb/c mice; assay: Imiquimod (IMQ)-induced skin inflammation: ear swelling; format: in vivo; settings: topical on right ear, 20 μL, 50 mM once daily Day 1 to Day 9, IMQ cream
Description: as §1

[6] = test system: IL-2; assay: IL-2 release from T-cells, inflammation induced by CD2, CD3, and CD28; format: cell-based; settings: highest test concentrations
Text: as §3

[7] = test system: IL-17; assay: Imiquimod (IMQ)-induced skin inflammation: IL-17 gene expression in ear by qPCR; format: in vivo; settings: Balb/c mice, topical on right ear, 20 μL, 50 mM once daily Day 1 to Day 9, IMQ cream
Description: as §1

[8] = test system: human keratinocytes; assay: Cell viability of human keratinocytes, inflammation induced by IL-4, IL-13, IL-22 and IFN-γ; format: cell-based; settings: human keratinocytes induced by IL-4, IL-13, IL-22 and IFN-γ
Text: as §2

| SMILES | effect on body weights [1] | inhibition of CCL2 release [2] | inhibition of IL-8 release [3] | inhibition of IL-4 release [4] | ear swelling compared to vehicle [5] | inhibition of IL-2 release [6] | IL-17 gene expression in the ear [7] | cell viability [8] |
| --- | --- | --- | --- | --- | --- | --- | --- | --- |
| O=C(c1nc2ccccc2[nH]1)c1c[nH]c2ccccc12 [Compound 10] | no significant effect on body weights | inhibited release of CCL2 | inhibited release of IL-8 | inhibited release of IL-2 and IL-4 at the highest test concentrations | significant reductions in ear swelling | inhibited release of IL-2 and IL-4 at the highest test concentrations | reduction in IL-17 gene expression | – |
| CC(C)c1c(O)cc(/C=C/c2ccccc2)cc1O [tapiranof, reference compound] | – | inhibited release of CCL2 | inhibited release of IL-8 | inhibited release of IL-2 and IL-4 at the highest test concentrations | – | inhibited release of IL-2 and IL-4 at the highest test concentrations | – | inhibition of cell viability at higher concentrations |
